Reference: PMC4823954, “From fighting depression to conquering tumors: a novel tricyclic thiazepine compound as a tubulin polymerization inhibitor” (Cell Death & Disease, 2016)

Tests used:
Assay in all cases: KINOMEscan
Assay type in all cases: binding
Details in all cases: read-out: % Ctrl
[1] = target: T1, ABL1(T315I)-nonphosphorylated (Homo sapiens, UniProt P00519, T315I)
T1 construct: purchased DiscoveRx KINOMEscan

ADCK3 = target: T2, ADCK3 (Homo sapiens, UniProt Q8NI60)
T2 construct: purchased DiscoveRx KINOMEscan
Procedure, shortened: (§1)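 Competition binding panel of 442 non-mutant kinases: test compound at 5 and 10 μM competed with an active-site-directed ligand for 1 h with shaking. Bound kinase was eluted with 0.5 μM ligand and quantified by qPCR; %Ctrl = (compound − positive control)/(DMSO − positive control) × 100, lower meaning tighter binding.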

BRSK1 = target: T3, BRSK1 (Homo sapiens, UniProt Q8TDC3)
T3 construct: purchased DiscoveRx KINOMEscan
Procedure, shortened: as §1

CAMK1G = target: T4, CAMK1G (Homo sapiens, UniProt Q96NX5)
T4 construct: purchased DiscoveRx KINOMEscan
Procedure, shortened: as §1

CHEK2 = target: T5, CHEK2 (Homo sapiens, UniProt O96017)
T5 construct: purchased DiscoveRx KINOMEscan
Procedure, shortened: as §1

CLK3 = target: T6, CLK3 (Homo sapiens, UniProt P49761)
T6 construct: purchased DiscoveRx KINOMEscan
Procedure, shortened: as §1

DAPK3 = target: T7, DAPK3 (Homo sapiens, UniProt O43293)
T7 construct: purchased DiscoveRx KINOMEscan
Procedure, shortened: as §1

DYRK1B = target: T8, DYRK1B (Homo sapiens, UniProt Q9Y463)
T8 construct: purchased DiscoveRx KINOMEscan
Procedure, shortened: as §1

ERBB2 = target: T9, ERBB2 (Homo sapiens, UniProt P04626)
T9 construct: purchased DiscoveRx KINOMEscan
Procedure, shortened: as §1

ERK5 = target: T10, ERK5 (Homo sapiens, UniProt Q13164)
T10 construct: purchased DiscoveRx KINOMEscan
Procedure, shortened: as §1

FLT3(R834Q) = target: T11, FLT3(R834Q) (Homo sapiens, UniProt P36888, R834Q)
T11 construct: purchased DiscoveRx KINOMEscan

[2] = target: T12, JAK2(JH1domain-catalytic) (Homo sapiens, UniProt O60674)
T12 construct: JAK2(JH1domain-catalytic); purchased DiscoveRx KINOMEscan
Procedure, shortened: as §1

KIT(D816H) = target: T13, KIT(D816H) (Homo sapiens, UniProt P10721, D816H)
T13 construct: purchased DiscoveRx KINOMEscan

MAP4K2 = target: T14, MAP4K2 (Homo sapiens, UniProt Q12851)
T14 construct: purchased DiscoveRx KINOMEscan
Procedure, shortened: as §1

MAPKAPK2 = target: T15, MAPKAPK2 (Homo sapiens, UniProt P49137)
T15 construct: purchased DiscoveRx KINOMEscan
Procedure, shortened: as §1

MKNK2 = target: T16, MKNK2 (Homo sapiens, UniProt Q9HBH9)
T16 construct: purchased DiscoveRx KINOMEscan
Procedure, shortened: as §1

MLCK = target: T17, MLCK (Homo sapiens, UniProt Q32MK0)
T17 construct: purchased DiscoveRx KINOMEscan
Procedure, shortened: as §1

NEK5 = target: T18, NEK5 (Homo sapiens, UniProt Q6P3R8)
T18 construct: purchased DiscoveRx KINOMEscan
Procedure, shortened: as §1

PAK1 = target: T19, PAK1 (Homo sapiens, UniProt Q13153)
T19 construct: purchased DiscoveRx KINOMEscan
Procedure, shortened: as §1

PCTK1 = target: T20, PCTK1 (Homo sapiens, UniProt Q00536)
T20 construct: purchased DiscoveRx KINOMEscan
Procedure, shortened: as §1

PKN2 = target: T21, PKN2 (Homo sapiens, UniProt Q16513)
T21 construct: purchased DiscoveRx KINOMEscan
Procedure, shortened: as §1

RET(V804M) = target: T22, RET(V804M) (Homo sapiens, UniProt P07949, V804M)
T22 construct: purchased DiscoveRx KINOMEscan

RIPK5 = target: T23, RIPK5 (Homo sapiens, UniProt Q6XUX3)
T23 construct: purchased DiscoveRx KINOMEscan
Procedure, shortened: as §1

SNARK = target: T24, SNARK (Homo sapiens, UniProt Q9H093)
T24 construct: purchased DiscoveRx KINOMEscan
Procedure, shortened: as §1

SRPK1 = target: T25, SRPK1 (Homo sapiens, UniProt Q96SB4)
T25 construct: purchased DiscoveRx KINOMEscan
Procedure, shortened: as §1

STK16 = target: T26, STK16 (Homo sapiens, UniProt O75716)
T26 construct: purchased DiscoveRx KINOMEscan
Procedure, shortened: as §1

STK33 = target: T27, STK33 (Homo sapiens, UniProt Q9BYT3)
T27 construct: purchased DiscoveRx KINOMEscan
Procedure, shortened: as §1

SYK = target: T28, SYK (Homo sapiens, UniProt P43405)
T28 construct: purchased DiscoveRx KINOMEscan
Procedure, shortened: as §1

TRKB = target: T29, TRKB (Homo sapiens, UniProt Q16620)
T29 construct: purchased DiscoveRx KINOMEscan
Procedure, shortened: as §1

YANK1 = target: T30, YANK1 (Homo sapiens, UniProt Q8WU08)
T30 construct: purchased DiscoveRx KINOMEscan
Procedure, shortened: as §1

T17 sequence (Q32MK0 whole entry): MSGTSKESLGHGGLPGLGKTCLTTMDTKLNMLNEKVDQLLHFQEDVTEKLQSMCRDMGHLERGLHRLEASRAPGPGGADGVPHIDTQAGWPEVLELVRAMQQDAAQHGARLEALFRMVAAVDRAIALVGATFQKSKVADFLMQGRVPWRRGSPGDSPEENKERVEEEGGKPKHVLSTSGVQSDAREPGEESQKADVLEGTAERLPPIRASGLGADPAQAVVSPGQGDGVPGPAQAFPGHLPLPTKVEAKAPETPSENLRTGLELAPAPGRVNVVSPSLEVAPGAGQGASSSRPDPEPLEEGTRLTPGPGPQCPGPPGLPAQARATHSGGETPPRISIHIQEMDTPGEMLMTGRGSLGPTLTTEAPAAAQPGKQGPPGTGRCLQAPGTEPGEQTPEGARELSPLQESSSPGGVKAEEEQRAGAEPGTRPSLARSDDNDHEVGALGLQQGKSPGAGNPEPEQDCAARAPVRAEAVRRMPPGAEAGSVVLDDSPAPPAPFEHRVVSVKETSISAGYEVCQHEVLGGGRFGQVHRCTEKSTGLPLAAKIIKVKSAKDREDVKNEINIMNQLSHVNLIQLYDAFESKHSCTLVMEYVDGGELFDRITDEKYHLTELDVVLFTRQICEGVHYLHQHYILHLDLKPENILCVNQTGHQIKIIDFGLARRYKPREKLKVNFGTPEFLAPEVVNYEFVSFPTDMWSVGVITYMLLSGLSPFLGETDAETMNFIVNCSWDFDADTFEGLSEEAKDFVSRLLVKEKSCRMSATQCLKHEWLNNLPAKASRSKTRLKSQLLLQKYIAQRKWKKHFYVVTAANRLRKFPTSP
T30 sequence (Q8WU08 whole entry): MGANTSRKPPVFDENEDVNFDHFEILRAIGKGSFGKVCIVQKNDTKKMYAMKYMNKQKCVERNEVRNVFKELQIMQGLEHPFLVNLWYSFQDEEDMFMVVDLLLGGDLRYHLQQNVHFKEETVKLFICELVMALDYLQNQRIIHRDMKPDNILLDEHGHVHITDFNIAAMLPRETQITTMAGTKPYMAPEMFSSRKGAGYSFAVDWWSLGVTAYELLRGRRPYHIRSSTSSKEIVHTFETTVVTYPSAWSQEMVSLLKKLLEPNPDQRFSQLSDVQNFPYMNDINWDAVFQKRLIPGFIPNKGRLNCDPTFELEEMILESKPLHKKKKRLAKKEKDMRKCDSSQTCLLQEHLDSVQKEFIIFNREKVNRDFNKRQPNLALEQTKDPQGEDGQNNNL
T26 sequence (O75716 whole entry): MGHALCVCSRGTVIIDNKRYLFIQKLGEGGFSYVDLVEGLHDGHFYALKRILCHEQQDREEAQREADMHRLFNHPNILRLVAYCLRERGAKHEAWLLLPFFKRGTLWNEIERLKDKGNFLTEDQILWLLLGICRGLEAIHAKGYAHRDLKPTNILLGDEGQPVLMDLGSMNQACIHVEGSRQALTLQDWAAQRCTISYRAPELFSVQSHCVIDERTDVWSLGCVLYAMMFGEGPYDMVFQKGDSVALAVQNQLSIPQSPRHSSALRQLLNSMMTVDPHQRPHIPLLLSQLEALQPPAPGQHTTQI
T16 sequence (Q9HBH9 whole entry): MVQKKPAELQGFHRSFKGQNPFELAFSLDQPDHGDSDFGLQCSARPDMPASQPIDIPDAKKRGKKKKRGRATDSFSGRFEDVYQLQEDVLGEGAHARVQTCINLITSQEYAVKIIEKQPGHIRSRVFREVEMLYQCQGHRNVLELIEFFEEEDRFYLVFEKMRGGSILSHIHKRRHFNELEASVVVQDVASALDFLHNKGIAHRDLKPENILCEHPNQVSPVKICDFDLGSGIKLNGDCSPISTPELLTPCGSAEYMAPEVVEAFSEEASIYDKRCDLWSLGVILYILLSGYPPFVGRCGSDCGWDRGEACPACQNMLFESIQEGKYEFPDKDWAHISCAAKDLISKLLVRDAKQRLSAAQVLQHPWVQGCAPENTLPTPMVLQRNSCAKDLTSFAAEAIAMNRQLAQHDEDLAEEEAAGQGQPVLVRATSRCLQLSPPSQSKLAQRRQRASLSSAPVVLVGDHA
T20 sequence (Q00536 whole entry): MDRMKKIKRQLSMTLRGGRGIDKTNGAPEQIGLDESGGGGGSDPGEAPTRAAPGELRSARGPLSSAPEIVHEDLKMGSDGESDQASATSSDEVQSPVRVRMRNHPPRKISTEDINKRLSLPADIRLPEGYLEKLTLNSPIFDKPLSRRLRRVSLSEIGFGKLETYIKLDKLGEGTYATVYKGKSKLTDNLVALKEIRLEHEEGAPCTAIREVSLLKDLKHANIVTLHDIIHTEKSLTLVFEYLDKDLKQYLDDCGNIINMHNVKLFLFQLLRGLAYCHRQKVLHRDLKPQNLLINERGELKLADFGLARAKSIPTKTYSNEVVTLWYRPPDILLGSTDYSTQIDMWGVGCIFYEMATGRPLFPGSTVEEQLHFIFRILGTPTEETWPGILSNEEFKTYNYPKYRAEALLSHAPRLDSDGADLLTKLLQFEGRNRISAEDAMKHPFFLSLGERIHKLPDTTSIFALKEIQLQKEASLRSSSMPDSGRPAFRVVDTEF
T7 sequence (O43293 whole entry): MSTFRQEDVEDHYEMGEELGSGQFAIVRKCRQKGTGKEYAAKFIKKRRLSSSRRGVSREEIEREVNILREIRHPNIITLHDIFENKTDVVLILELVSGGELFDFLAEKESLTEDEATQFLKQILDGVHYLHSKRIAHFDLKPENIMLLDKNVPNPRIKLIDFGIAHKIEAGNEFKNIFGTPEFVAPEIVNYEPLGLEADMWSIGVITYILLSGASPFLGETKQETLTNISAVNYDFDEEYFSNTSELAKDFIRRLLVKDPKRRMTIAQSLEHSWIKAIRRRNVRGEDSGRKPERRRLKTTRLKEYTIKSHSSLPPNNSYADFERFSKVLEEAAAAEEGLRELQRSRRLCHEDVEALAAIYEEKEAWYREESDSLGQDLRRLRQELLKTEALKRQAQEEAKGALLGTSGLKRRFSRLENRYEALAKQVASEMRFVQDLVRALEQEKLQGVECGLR
T13 sequence (P10721 26-976 D816H): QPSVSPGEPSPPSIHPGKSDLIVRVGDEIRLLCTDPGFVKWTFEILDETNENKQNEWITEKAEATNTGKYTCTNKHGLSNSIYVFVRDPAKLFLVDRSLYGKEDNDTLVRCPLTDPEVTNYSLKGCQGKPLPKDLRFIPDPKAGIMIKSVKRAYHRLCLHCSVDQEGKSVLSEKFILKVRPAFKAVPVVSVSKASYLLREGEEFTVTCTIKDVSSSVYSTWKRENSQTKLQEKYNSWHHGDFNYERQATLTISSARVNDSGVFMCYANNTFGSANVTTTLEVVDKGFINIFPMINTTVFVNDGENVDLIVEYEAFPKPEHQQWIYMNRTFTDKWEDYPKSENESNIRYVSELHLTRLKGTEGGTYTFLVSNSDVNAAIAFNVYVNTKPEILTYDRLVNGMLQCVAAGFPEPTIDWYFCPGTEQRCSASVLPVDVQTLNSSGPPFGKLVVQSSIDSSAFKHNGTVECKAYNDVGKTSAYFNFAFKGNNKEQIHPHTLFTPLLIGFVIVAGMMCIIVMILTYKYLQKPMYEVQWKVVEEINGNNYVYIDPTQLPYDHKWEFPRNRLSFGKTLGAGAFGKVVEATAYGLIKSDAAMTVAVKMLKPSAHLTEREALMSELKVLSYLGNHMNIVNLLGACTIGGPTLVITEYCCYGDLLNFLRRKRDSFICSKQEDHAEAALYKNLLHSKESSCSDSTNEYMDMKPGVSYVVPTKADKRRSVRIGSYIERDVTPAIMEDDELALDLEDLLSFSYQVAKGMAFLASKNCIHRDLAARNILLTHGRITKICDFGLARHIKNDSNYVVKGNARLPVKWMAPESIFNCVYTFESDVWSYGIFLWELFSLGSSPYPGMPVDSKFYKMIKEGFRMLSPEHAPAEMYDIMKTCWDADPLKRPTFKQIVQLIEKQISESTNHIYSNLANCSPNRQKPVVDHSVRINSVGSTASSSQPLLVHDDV
T15 sequence (P49137 whole entry): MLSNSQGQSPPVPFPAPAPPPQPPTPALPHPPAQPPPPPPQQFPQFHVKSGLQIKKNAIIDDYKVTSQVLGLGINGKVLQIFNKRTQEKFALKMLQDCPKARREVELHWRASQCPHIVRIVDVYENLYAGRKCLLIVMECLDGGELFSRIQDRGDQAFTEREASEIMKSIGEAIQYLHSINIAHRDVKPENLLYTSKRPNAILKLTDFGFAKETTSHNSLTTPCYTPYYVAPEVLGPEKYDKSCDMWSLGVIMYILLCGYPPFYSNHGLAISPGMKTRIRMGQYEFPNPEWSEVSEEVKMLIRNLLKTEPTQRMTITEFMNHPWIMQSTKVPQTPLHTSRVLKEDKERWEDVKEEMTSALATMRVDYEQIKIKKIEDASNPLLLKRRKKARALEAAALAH
T5 sequence (O96017 whole entry): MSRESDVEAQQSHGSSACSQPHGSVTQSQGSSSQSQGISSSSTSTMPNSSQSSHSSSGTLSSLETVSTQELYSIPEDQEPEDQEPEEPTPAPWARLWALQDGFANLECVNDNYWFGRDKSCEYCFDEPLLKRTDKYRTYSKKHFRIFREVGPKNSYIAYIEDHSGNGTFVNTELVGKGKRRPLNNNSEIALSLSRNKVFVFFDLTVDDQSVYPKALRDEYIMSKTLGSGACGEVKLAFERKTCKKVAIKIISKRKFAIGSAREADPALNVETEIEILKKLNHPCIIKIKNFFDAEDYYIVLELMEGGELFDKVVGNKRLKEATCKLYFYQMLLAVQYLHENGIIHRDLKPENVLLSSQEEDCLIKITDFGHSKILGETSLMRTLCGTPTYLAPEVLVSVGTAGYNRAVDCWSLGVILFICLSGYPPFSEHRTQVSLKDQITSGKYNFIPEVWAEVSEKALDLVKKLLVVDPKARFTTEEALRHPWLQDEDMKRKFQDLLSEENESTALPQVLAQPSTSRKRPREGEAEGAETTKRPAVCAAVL

Cc1ccc(C2=Nc3cccnc3S(=O)(=O)c3ccccc32)cc1 [TBPT, 6-(p-tolyl)benzo[f] pyrido[2,3-b][1,4] thiazepine 11,11-dioxide]
remaining binding at 5 µM ([1]; 5 μM): 100% | remaining binding at 10 µM ([1]; 10 μM): 100% | remaining binding at 5 µM (ADCK3; 5 μM): 98% | remaining binding at 10 µM (ADCK3; 10 μM): 100% | remaining binding at 5 µM (BRSK1; 5 μM): 100% | remaining binding at 10 µM (BRSK1; 10 μM): 97% | remaining binding at 5 µM (CAMK1G; 5 μM): 100% | remaining binding at 10 µM (CAMK1G; 10 μM): 100% | remaining binding at 5 µM (CHEK2; 5 μM): 100% | remaining binding at 10 µM (CHEK2; 10 μM): 100% | remaining binding at 5 µM (CLK3; 5 μM): 100% | remaining binding at 10 µM (CLK3; 10 μM): 100% | remaining binding at 5 µM (DAPK3; 5 μM): 100% | remaining binding at 10 µM (DAPK3; 10 μM): 100% | remaining binding at 5 µM (DYRK1B; 5 μM): 99% | remaining binding at 10 µM (DYRK1B; 10 μM): 100% | remaining binding at 5 µM (ERBB2; 5 μM): 100% | remaining binding at 10 µM (ERBB2; 10 μM): 100% | remaining binding at 5 µM (ERK5; 5 μM): 100% | remaining binding at 10 µM (ERK5; 10 μM): 96% | remaining binding at 5 µM (FLT3(R834Q); 5 μM): 89% | remaining binding at 10 µM (FLT3(R834Q); 10 μM): 100% | remaining binding at 5 µM ([2]; 5 μM): 84% | remaining binding at 10 µM ([2]; 10 μM): 98% | remaining binding at 5 µM (KIT(D816H); 5 μM): 71% | remaining binding at 10 µM (KIT(D816H); 10 μM): 100% | remaining binding at 5 µM (MAP4K2; 5 μM): 92% | remaining binding at 10 µM (MAP4K2; 10 μM): 100% | remaining binding at 5 µM (MAPKAPK2; 5 μM): 100% | remaining binding at 10 µM (MAPKAPK2; 10 μM): 100% | remaining binding at 5 µM (MKNK2; 5 μM): 100% | remaining binding at 10 µM (MKNK2; 10 μM): 96% | remaining binding at 5 µM (MLCK; 5 μM): 92% | remaining binding at 10 µM (MLCK; 10 μM): 95% | remaining binding at 5 µM (NEK5; 5 μM): 100% | remaining binding at 10 µM (NEK5; 10 μM): 100% | remaining binding at 5 µM (PAK1; 5 μM): 81% | remaining binding at 10 µM (PAK1; 10 μM): 92% | remaining binding at 5 µM (PCTK1; 5 μM): 90% | remaining binding at 10 µM (PCTK1; 10 μM): 100% | remaining binding at 5 µM (PKN2; 5 μM): 100% | remaining binding at 10 µM (PKN2; 10 μM): 95% | remaining binding at 5 µM (RET(V804M); 5 μM): 84% | remaining binding at 10 µM (RET(V804M); 10 μM): 96% | remaining binding at 5 µM (RIPK5; 5 μM): 58% | remaining binding at 10 µM (RIPK5; 10 μM): 83% | remaining binding at 5 µM (SNARK; 5 μM): 100% | remaining binding at 10 µM (SNARK; 10 μM): 100% | remaining binding at 5 µM (SRPK1; 5 μM): 88% | remaining binding at 10 µM (SRPK1; 10 μM): 67% | remaining binding at 5 µM (STK16; 5 μM): 99% | remaining binding at 10 µM (STK16; 10 μM): 91% | remaining binding at 5 µM (STK33; 5 μM): 99% | remaining binding at 10 µM (STK33; 10 μM): 100% | remaining binding at 5 µM (SYK; 5 μM): 100% | remaining binding at 10 µM (SYK; 10 μM): 100% | remaining binding at 5 µM (TRKB; 5 μM): 96% | remaining binding at 10 µM (TRKB; 10 μM): 100% | remaining binding at 5 µM (YANK1; 5 μM): 96% | remaining binding at 10 µM (YANK1; 10 μM): 100%
